Where two headings read alike, the source gives them in different places.
Key:
[1] = tested on: liver constructs (bioprinted liver organoids); assay: On-chip liver construct lactate dehydrogenase release into media; type: cell-based, human; conditions: for LDH concentration in the media: day 10
[2] = tested on: liver constructs (bioprinted liver organoids); assay: On-chip liver construct albumin secretion (Human Albumin ELISA); type: cell-based; conditions: for albumin levels vs 0 mM control: administered after day 6
Protocol: (§1) Liver construct synthetic functionality, response to acetaminophen insult, and intervention with N-acetyl-L-cysteine. To assess the response of the liver organoid system to toxic drug insult, acetaminophen was employed. Liver organoids were cultured in microreactors as described before for 14 days. Media samples were collected on days 3, 6, 10, and 14. After media collection on day 6, 1 set of organoids continued with normal media, 1 set of organoids were treated with 1 mM APAP, and 1 set of organoids were treated with 10 mM APAP. To assess the effectiveness of a countermeasure treatment to be used in the liver organoid system, N-acetyl-L-cysteine was explored as a clinically relevant treatment against APAP-induced toxicity. This final set of organoids was treated with 10 mM APAP and 20 mM N-acetyl-L-cysteine. During media changes, groups receiving the drug treatment received fresh HCM also containing the appropriate drug concentration.
(§2) For assessment of liver organoid albumin and urea secretion under baseline conditions as well as during exposure to APAP, collected media aliquots were analyzed using a Human Albumin ELISA assay (Alpha Diagnostic International) and the amount of secreted urea in the collected media was determined using a Urea colorimetric assay (BioAssay Systems). For viability assessment, organoids were removed immediately after the final media collection time point (day 14) for staining by LIVE/DEAD viability/cytotoxicity kits (Life Technologies). Staining consisted of incubation in 2 uM calcein AM (stains live cells green) and 4 uM EthD-1 (stains dead cells red) in a 1:1 PBS:HCM solution. Following staining, organoids were washed in PBS, fixed in 4% PFA, transferred to PBS, and imaged using macro-confocal microscopy (Leica TCS LSI). Additionally, media samples were analyzed for presence of lactate dehydrogenase (LDH), an enzyme that is released from cells after toxicity causes cell membrane rupture, using a Lactate Dehydrogenase Assay Kit (Abcam), and for α-GST, a hepatocyte-specific enzyme also released from cells after exposure to toxicity, using an α-GST Assay Kit (Oxford Biomedical Research).

[3] = tested on: liver constructs (bioprinted liver organoids); assay: On-chip liver construct alpha-GST release into media; type: cell-based, human; conditions: 10 mM APAP + 20 mM NAC
Protocol: Liver construct synthetic functionality, response to acetaminophen insult, and intervention with N-acetyl-L-cysteine. To assess the response of the liver organoid system to toxic drug insult, acetaminophen was employed. Liver organoids were cultured in microreactors as described before for 14 days. Media samples were collected on days 3, 6, 10, and 14. After media collection on day 6, 1 set of organoids continued with normal media, 1 set of organoids were treated with 1 mM APAP, and 1 set of organoids were treated with 10 mM APAP. […]
For assessment of liver organoid albumin and urea secretion under baseline conditions as well as during exposure to APAP, collected media aliquots were analyzed using a Human Albumin ELISA assay (Alpha Diagnostic International) and the amount of secreted urea in the collected media was determined using a Urea colorimetric assay (BioAssay Systems). […] Additionally, media samples were analyzed for presence of lactate dehydrogenase (LDH), an enzyme that is released from cells after toxicity causes cell membrane rupture, using a Lactate Dehydrogenase Assay Kit (Abcam), and for α-GST, a hepatocyte-specific enzyme also released from cells after exposure to toxicity, using an α-GST Assay Kit (Oxford Biomedical Research).

[4] = tested on: liver constructs (bioprinted liver organoids); assay: On-chip liver construct urea secretion (colorimetric assay); type: cell-based, human
Protocol: as §1
as §2, with “Following staining, organoids were washed in PBS, fixed in 4% PFA, transferred to PBS, and imaged using macro-confocal microscopy (Leica TCS LSI).” left out

[5] = tested on: liver constructs (bioprinted liver organoids); assay: On-chip liver construct viability by LIVE/DEAD staining after APAP / NAC; type: cell-based; conditions: day 14
Protocol: as §1
as §2, with “Following staining, organoids were washed in PBS, fixed in 4% PFA, transferred to PBS, and imaged using macro-confocal microscopy (Leica TCS LSI).” left out

[6] = tested on: cardiac organoids
Protocol: To test the integrated response of the liver and cardiac system to epinephrine and propranolol combinations, the experimental groups described above were prepared and the same protocol (individual unit incubation prior to joining of modules) was followed. However, the incubation period was lengthened to overnight (18 hours). Both Group 1 and Group 2 were administered 0.1 uM propranolol. After the incubation period, the modules were joined and 0.5 uM epinephrine was be administered to both groups. Additionally, in parallel, a Group 3 condition was employed, which mirrored Group 2, but used a 2D hepatocyte culture (1-2 million cells/well) instead of the liver construct as a 2D comparison.

[7] = tested on: cardiac organoids; assay: Cardiac organoid beating rate response to drugs (onboard camera / microscope); type: cell-based, human
Description: Cardiac construct baseline function monitoring and beat rate response to drugs. […] First the cover of the webcam is disassembled to retrieve the CMOS sensor. The lens of the webcam is then detached from its initial location, flipped, and integrated back to the holder to convert it into a magnifying lens. A base was then constructed for the mini-microscope to fit onto the bottom of the bioreactors. The base consisted of a dual-layer structure of PMMA sheets (⅛″ Thick, 12″×12″, McMaster 8505K11) cut into the dimensions of the bioreactors using a laser cutter (VLS 2.30 Desktop Laser System, Universal Laser Systems). Using 4 sets of screw/bolts, the CMOS module was tightly clamped in between a pair of PMMA structures. Additional 4 sets of screw/bolts were further mounted at the corners of the structures to function as the focus knobs. Only very minor alteration to the bioreactor itself was needed, i.e., 4 extra holes were drilled on the lower PMMA board to fit the imager at the bottom. During culture of cardiac constructs, videos were captured to analyze cardiac organoid beating rates. Video files were analyzed using custom written MatLab code with a series of MatLab functions. The software created a reference frame, based on the first frame of the video, and compared pixels in each subsequent frame, determining which pixels represented movement over time. The moving pixels in each frame were then used to generate a black and white pixilated representation of beat behavior, allowing visualization of beat propagation, and generation a plot showing the number of moving pixels versus time, allowing determination of beating rates.

[8] = tested on: cardiac organoids; conditions: for increase in beating rate: 0.5 μM
Protocol: Integrated organoid system and integrated response to drugs. To evaluate how the combination of both organoid types together impact drug response, epinephrine and propranolol were tested independently and jointly. In the independent scenario, organoid platforms were prepared in two groups: Group 1 consisted of a set of organoids comprised only of cardiac, with “blank” liver modules. Group 2 consisted of both cardiac and liver. However, it should be noted that cardiac and liver constructs were kept separate for the incubation period, while the drug was administered to the liver construct or “blank” liver module, after which the modules were joined for 30 minutes prior to cardiac beating rate assessment. Baseline cardiac organoid beating rates were determined in each group prior to drug administration. Then, the drugs—either 0.1 μM propranolol or 0.5 μM epinephrine—were administered, allowed to incubate for 1 hour, after which the modules were joined, and data was collected.

[9] = tested on: bioprinted cardiac tissue constructs (rat neonatal cardiomyocytes); assay: Bioprinted rat cardiac tissue constructs, response to cardiac drugs; type: cell-based
Description: In this study, 3D bioprinting was applied to fabricate functional and contractile cardiac tissue constructs. Rat neonatal heart tissues were obtained to isolate cardiomyocytes, and the cells were suspended in a fibrin-based hydrogel bioink. Cell-laden hydrogel was printed through a 300-micron nozzle by pneumatic pressure. […] Moreover, tissue development of the printed cardiac tissue could accelerate by Notch signal blockade.

[10] = tested on: liver organoids; assay: Troglitazone toxicity, organoid viability by CellTiter-Glo ATP assay; type: cell-based, human; conditions: liver organoids treated for 48 hours
Protocol: Organoid viability assays. Organoid viability was assessed by ATP production as a measure of metabolic activity as detailed in the following white paper^1. CellTiter-Glo assay (Promega) was used to measure ATP by transferring one organoid/well to a black, opaque 96-well plate (Corning). Blanks were included using HCM medium (Lonza) at 80 μl/well. 80 μl of prepared CellTiter-Glo buffer was added per well and plate was placed on shaker for 5 minutes to lyse cells, then further incubated for 15 minutes protected from light. Plate was read using plate reader (SpectraMax M5, Molecular Devices) with an integration time of 0.5 see/well. Sample time points were compared via two-sample unequal variance t-test. Live/dead stain was also used to assess viability. Organoids were washed in PBS and then stained with live/dead viability/cytotoxicity kit (Life Technologies): 2 μL/mL ethidium homodimer-1 and 0.5 μL/mL calcein AM (diluted in PBS) for 45 minutes at room temperature, protected from light. Organoids were transferred to a depression glass slide (Erie Scientific) and then imaged using TCS LSI macro confocal microscope with 5× macro objective (Leica).
Troglitazone toxicity. […] Organoid viability was measured using the CellTiter-Glo assay (Promega) as recorded as previously described.

[11] = tested on: liver organoids; assay: Phospholipid accumulation, HCS LipidTox Phospholipidosis Detection Stain; type: cell-based, human; conditions: 48 hour treatment, even with lower concentrations
Protocol: Accumulation of phospholipids within the organoids was imaged using the HCS LipidTox Phospholipidosis Detection Stain (Invitrogen). LipidTox reagent was added to medium at the same time as the troglitazone at a ratio of 1:500. Following 48 hour drug treatment, organoids were fixed in 4% paraformaldehyde (Sigma Aldrich), washed in PBS, and then transferred to a depression glass slide (Erie Scientific) for imaging using TCS LSI macro confocal with 5× macro objective (Leica).

## CC(=O)N[C@@H](CS)C(=O)O [NAC, N-acetyl-L-cysteine]
[1]; 10 mM APAP + 20 mM NAC
  LDH concentration in the media: almost identical to the control group
[2]; 10 mM APAP + 20 mM NAC
  albumin levels vs 10 mM APAP group: significantly greater than those of the 10 mM APAP treated group
[3]; day 10
  alpha-GST in media: about 6 ng/mL
[3]; day 14
  alpha-GST in media: ~5 ng/mL
[4]; 10 mM APAP + 20 mM NAC
  urea levels vs 10 mM APAP: significantly greater than the 10 mM APAP urea levels
  urea levels vs control organoids: not significantly different than the control organoids
[5]; 10 mM APAP + 20 mM NAC
  viability (LIVE/DEAD), rescue from APAP: reduced the level of morbidity

## CC(C)NCC(O)COc1cccc2ccccc12 (stereo not drawn) [propranolol]
[6]; 0.1 μM propranolol, Group 1, no liver organoids
  block of beta-adrenergic effects of 0.5 μM epinephrine: successfully blocked
[7]; 0, 0.5, 5, 20 uM propranolol for 20 minutes, then 5 uM epinephrine
  prevention of epinephrine-induced increase in beating rate: more effectively prevented epinephrine-induced increases in beating rates
[8]; 0.1 μM, cardiac-only system
  decrease in beating rate: ~10%
[8]; 0.1 μM, in the presence of the liver construct
  change in beating rate: no decrease in beating rate

## CNC[C@H](O)c1ccc(O)c(O)c1 [epinephrine]
[6]; 0.5 μM epinephrine after 0.1 μM propranolol, 2D hepatocyte culture instead of liver construct
  restoration of the epinephrine-induced increase in beat rate: failed achieve any restoration
[6]; 0.5 μM epinephrine after 0.1 μM propranolol, Group 2, liver component added
  increase in BPM: 1.25 fold
[6]; 0.5 μM epinephrine after 0.1 μM propranolol, Group 2 with 3D liver organoids
  response relative to control epinephrine-only response: approximately 50%
[6]; 0.5 μM epinephrine, controls with no propranolol
  increase in cardiac BPM: 1.5 fold
[9]
  physiological responses (beating frequency and contraction forces): showed physiological responses
[7]
  concentration at which beating rate plateau is reached: ≥ 5 µM
[7]; 0, 0.1, 0.5, 5 and 50 uM
  organoid beating rate, dose response: increased in a dose-dependent manner
[8]; cardiac-only system
  increase in beating rate: approximately 40%
[8]; with liver component
  increase in beating rate: ~30%

## C[N+](C)(C)CCOC(N)=O [carbachol]
[9]
  physiological responses (beating frequency and contraction forces): showed physiological responses

## Cc1c(C)c2c(c(C)c1O)CCC(C)(COc1ccc(CC3SC(=O)NC3=O)cc1)O2 (stereo not drawn) [troglitazone]
[10]
  viability (ATP quantification), dose-response: decrease in viability as concentration of drug is increased
[11]
  phospholipid accumulation: Considerable phospholipid accumulation

## CC(=O)Nc1ccc(O)cc1 [APAP, acetaminophen]
[1]; 10 mM APAP
  LDH concentration in the media: clear increase in LDH concentration
[1]; 10 mM APAP, day 14
  LDH levels: drop down to baseline
[2]; 1 mM APAP
  albumin levels vs 0 mM control: significantly decreased
[2]; 10 mM APAP
  albumin levels vs 0 mM control: significantly decreased
[2]; 10 mM APAP, day 14
  albumin levels: nearly immeasurable
[4]; 1 mM and 10 mM APAP, after administration
  urea levels: drop in a dose dependent manner
[5]; 1 mM APAP
  viability (ratio of live to dead cells, LIVE/DEAD): 30-50%
[5]; 10 mM APAP
  viability (LIVE/DEAD): few viable cells

## CC(C)NCC(O)c1ccc(O)c(O)c1 (stereo not drawn) [Isoproterenol]
[7]; 0.1 mM
  organoid beating rate: increased organoid beating rate

## C=C[C@H]1C[N@@]2CC[C@H]1C[C@@H]2[C@@H](O)c1ccnc2ccc(OC)cc12 [quinidine]
[7]; 1 μM
  organoid beating rate: slowed organoid beating rate

— patent publication US20240240150A1, “SPONTANEOUSLY BEATING CARDIAC ORGANOID CONSTRUCTS AND INTEGRATED BODY-ON-CHIP APPARATUS CONTAINING THE SAME” (Wake Forest University Health Sciences, priority 2015, published 2024)
